Publication PMC10920779, “Targeting P2Y14R protects against necroptosis of intestinal epithelial cells through PKA/CREB/RIPK1 axis in ulcerative colitis” (Nature Communications, 2024)

Tests used:
[1] = system: intestinal organoids; assay: TSZ-induced necroptosis in intestinal organoids (PI staining); assay type: cell-based, mouse; conditions: P2Y14Rfl/fl organoids, pre-treated with compound
Protocol: Crypts were released from the murine small intestine by incubation for 30 min at 4°C in PBS containing 2 mM EDTA. Isolated crypts were counted and pelleted. […] Organoid media were changed every 3 days. […] Dead cell imaging in live organoids was performed on the fluorescence microscope (BX53, Olympus Optical), and analyzed by image j.

[2] = parameters: method as in PMID 24138077; conditions: cited from earlier work

| Compound | TSZ-induced necroptosis of organoids (PI staining) [1] | Solubility [2] |
| --- | --- | --- |
| Brc1ccc(NCc2nc3ccccc3o2)cc1 [HDL-16] | protected P2Y14R^fl/fl organoids from TSZ-induced necroptosis | – |
| O=C(O)c1cc(-c2ccc(C3CCNCC3)cc2)c2ccc(-c3ccc(C(F)(F)F)cc3)cc2c1 [PPTN, reference compound] | – | poor solubility |
